Data as given in the supplement of paper PMC10307832.

Legend:
Experiment in all cases: relative viability (nuclei count vs DMSO), 5 days (fraction); higher = more cells survive
[1] = compound: CCn1c(-c2nonc2N)nc2c(C#CC(C)(C)O)ncc(OC[C@H]3CCCNC3)c21 + O=C(c1cc(Cc2n[nH]c(=O)c3ccccc23)ccc1F)N1CCN(C(=O)C2CC2)CC1 [Olaparib] (partner 8 µM)
In short: (§1)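 The day after seeding in 1536-well plates, lung cancer cell lines were treated by pin tool with a single drug, or with a fixed anchor-drug dose together with five library-drug doses (not always all listed) in √10 steps. After 5 days, a combined fix-and-stain solution (final 0.05% Triton X-100, 1% formaldehyde, 1 ug/ml Hoechst) was added. Nuclei counted on 4× images gave relative viability as treated counts over vehicle counts, reported as the median of duplicate plates.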

[2] = compound: CCn1c(-c2nonc2N)nc2c(C#CC(C)(C)O)ncc(OC[C@H]3CCCNC3)c21 + Cc1cc(Nc2cc(N3CCN(C)CC3)nc(Sc3ccc(NC(=O)C4CC4)cc3)n2)n[nH]1 [Tozasertib] (partner 0.1 µM)
In short: as §1

BAM7 + Foretinib = compound: CCOC1=CC=CC=C1N=NC2=C(NN(C2=O)C3=NC(=CS3)C4=CC=CC=C4)C [BAM7] + COc1cc2c(Oc3ccc(NC(=O)C4(C(=O)Nc5ccc(F)cc5)CC4)cc3F)ccnc2cc1OCCCN1CCOCC1 [Foretinib] (partner 0.25 µM)
In short: as §1

BAM7 + Pictilisib = compound: CCOC1=CC=CC=C1N=NC2=C(NN(C2=O)C3=NC(=CS3)C4=CC=CC=C4)C [BAM7] + CS(=O)(=O)N1CCN(Cc2cc3nc(-c4cccc5[nH]ncc45)nc(N4CCOCC4)c3s2)CC1 [Pictilisib] (partner 1 µM)
In short: as §1

Cell Line	relative viability ([1]; first compound 0.01 µM)	relative viability ([1]; first compound 0.03162 µM)	relative viability ([1]; first compound 0.1 µM)	relative viability ([1]; first compound 0.3162 µM)	relative viability ([1]; first compound 1 µM)	relative viability ([2]; first compound 0.01 µM)	relative viability ([2]; first compound 0.03162 µM)	relative viability ([2]; first compound 0.1 µM)	relative viability ([2]; first compound 0.3162 µM)	relative viability ([2]; first compound 1 µM)	relative viability (BAM7 + Foretinib; first compound 0.5 µM)	relative viability (BAM7 + Foretinib; first compound 5 µM)	relative viability (BAM7 + Foretinib; first compound 15.81 µM)	relative viability (BAM7 + Foretinib; first compound 50 µM)	relative viability (BAM7 + Pictilisib; first compound 0.5 µM)	relative viability (BAM7 + Pictilisib; first compound 5 µM)	relative viability (BAM7 + Pictilisib; first compound 15.81 µM)	relative viability (BAM7 + Pictilisib; first compound 50 µM)
LCLC-97TM1	0.413	0.509	0.347	0.391	0.321	0.203	0.31	0.211	0.271	0.204	0.975	0.963	0.935	0.883	0.218	0.197	0.172	0.2
EPLC-272H	0.833	0.853	0.641	0.56	0.507	0.337	0.512	0.261	0.186	0.274	0.653	–	0.632	0.811	0.358	0.327	0.323	0.347
NCI-H1915	0.258	0.277	0.225	0.249	0.255	0.439	0.424	0.422	0.413	0.464	1.21	1.15	1.02	1.02	1.01	1.15	0.898	1.04
NCI-H2405	0.836	0.844	0.821	0.8	0.915	0.768	0.806	0.692	0.71	0.706	1.04	1.12	1.02	1.04	0.438	0.557	0.449	0.538
NCI-H322M	0.779	0.71	0.693	0.749	0.831	0.465	0.419	0.423	0.42	0.448	0.939	0.95	0.862	0.932	0.53	0.623	0.549	0.578
NCI-H2170	0.654	0.567	0.645	0.559	0.586	0.769	0.755	0.778	0.705	0.733	0.973	0.994	0.91	1	0.268	0.3	0.271	0.314
NCI-H1395	0.464	0.412	0.472	0.433	0.372	0.776	0.763	0.736	0.651	0.659	1.01	1.09	1.01	1.05	0.612	0.714	0.702	0.683
NCI-H358	0.556	0.601	0.569	0.525	0.518	0.0952	0.0863	0.103	0.1	0.097	0.834	0.84	0.642	0.634	0.296	0.366	0.327	0.359
NCI-H838	0.74	0.838	0.804	0.726	0.76	0.276	0.295	0.29	0.248	0.253	1.08	1.22	0.985	0.989	0.487	0.421	0.449	0.441
CAL-12T	0.599	0.708	0.72	0.699	0.729	0.351	0.354	0.303	0.309	0.298	1.22	1.18	1.09	1.23	0.467	0.526	0.413	0.466
